Laboratory results taken from article PMC3601661 (Steroids, 2012).
Like-named read-outs stand apart in the source and are kept apart here.

Experiments:
[1] = biological target: T1, progesterone receptor (PR) (Homo sapiens, UniProt P06401); assay: PRE-luciferase reporter assay in T47D cells; format: cell-based; details: for PRE-luciferase Fold increase (10μM): compound 10 μM, over DMSO; for dose-dependent activation of PRE-luciferase: five increasing doses; for compound-induced PRE-luciferase activity in the presence of RU486: with 1 μM RU486, T47D cells
T1 sequence (P06401 679-933 limits assumed): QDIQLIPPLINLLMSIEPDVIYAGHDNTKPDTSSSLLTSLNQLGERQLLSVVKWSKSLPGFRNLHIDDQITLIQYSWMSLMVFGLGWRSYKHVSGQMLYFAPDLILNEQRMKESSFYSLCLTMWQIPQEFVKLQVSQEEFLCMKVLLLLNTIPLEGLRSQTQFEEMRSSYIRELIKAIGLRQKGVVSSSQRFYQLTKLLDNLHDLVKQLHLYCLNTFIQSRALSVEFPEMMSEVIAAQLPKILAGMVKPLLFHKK

[2] = biological target: T2, progesterone receptor ligand binding domain (PR-LBD-GST) (Homo sapiens, UniProt P06401); assay: Progesterone receptor polarization competitive binding assay
T2 sequence (P06401 675-933): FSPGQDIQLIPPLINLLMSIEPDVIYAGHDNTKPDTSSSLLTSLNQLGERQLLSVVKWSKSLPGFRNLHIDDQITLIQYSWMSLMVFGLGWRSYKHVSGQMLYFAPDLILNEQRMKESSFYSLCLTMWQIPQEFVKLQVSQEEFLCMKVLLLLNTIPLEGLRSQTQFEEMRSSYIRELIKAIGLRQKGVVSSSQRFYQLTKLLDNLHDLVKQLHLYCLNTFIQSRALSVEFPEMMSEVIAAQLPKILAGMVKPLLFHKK

[3] = tested on: T47D cells; assay: Sulforhodamine B; format: cell-based
[4] = Sulforhodamine B; format: cell-based; details: human
[5] = tested on: ZBTB16 mRNA; assay: Quantitative PCR of the P4 responsive gene ZBTB16 in T47D cells; format: cell-based, human; details: 100 μM, 24 h
[6] = tested on: prolactin (PRL) mRNA; assay: Quantitative PCR of decidualization gene PRL in HESC; format: cell-based, human; details: 100 μM, 48 h, with E2 and 8-Br-cAMP
[7] = tested on: cannabinoid receptor 1 (CNR1) mRNA; assay: Quantitative PCR of decidualization gene CNR1 in HESC; format: cell-based, human; details: 100 μM, 48 h, with E2 and 8-Br-cAMP
[8] = tested on: PRA and PRB protein; assay: Western blot of PRA and PRB expression in T47D cells; format: cell-based, human; details: P4 1 μM, flavonoids 100 μM, 1.5 h or 16 h
[9] = biological target: T3, progesterone receptor (PR) (Homo sapiens, UniProt P06401); assay: PRE-luciferase reporter assay in human endometrial stromal cells; format: cell-based; details: for dose-dependent activation of PRE-luciferase: HESC; for compound-induced PRE-luciferase in the presence of RU486: compound 20 μM with 1 μM RU486, HESC
T3 sequence (P06401 1-933): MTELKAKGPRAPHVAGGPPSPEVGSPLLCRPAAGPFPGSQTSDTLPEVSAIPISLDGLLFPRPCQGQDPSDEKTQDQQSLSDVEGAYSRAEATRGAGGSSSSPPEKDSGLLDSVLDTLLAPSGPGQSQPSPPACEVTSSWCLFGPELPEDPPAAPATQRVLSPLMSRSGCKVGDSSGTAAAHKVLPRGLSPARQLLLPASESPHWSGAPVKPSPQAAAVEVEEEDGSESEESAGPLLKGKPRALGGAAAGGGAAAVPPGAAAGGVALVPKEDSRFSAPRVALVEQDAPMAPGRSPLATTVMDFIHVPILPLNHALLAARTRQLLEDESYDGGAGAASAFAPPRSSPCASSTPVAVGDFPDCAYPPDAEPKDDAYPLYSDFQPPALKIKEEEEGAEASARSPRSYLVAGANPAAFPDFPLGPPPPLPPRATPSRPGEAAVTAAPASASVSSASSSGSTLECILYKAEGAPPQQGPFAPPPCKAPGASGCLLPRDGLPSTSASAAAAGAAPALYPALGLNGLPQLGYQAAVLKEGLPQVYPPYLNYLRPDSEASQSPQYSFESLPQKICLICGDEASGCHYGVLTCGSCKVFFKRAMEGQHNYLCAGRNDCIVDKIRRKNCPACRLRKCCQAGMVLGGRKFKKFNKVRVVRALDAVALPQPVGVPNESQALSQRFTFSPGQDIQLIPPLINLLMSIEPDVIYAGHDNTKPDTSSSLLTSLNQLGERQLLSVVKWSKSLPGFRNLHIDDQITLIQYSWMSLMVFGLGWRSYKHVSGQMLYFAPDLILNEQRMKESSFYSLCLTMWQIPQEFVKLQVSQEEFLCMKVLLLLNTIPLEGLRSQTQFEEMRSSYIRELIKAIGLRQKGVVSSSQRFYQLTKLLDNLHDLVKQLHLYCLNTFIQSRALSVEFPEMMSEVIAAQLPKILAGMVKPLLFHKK

[10] = tested on: MPA-induced mammary tumors; details: rats; cited from earlier work
[11] = biological target: T1, progesterone receptor (PR); assay: PRE-luciferase in T47D cells in combination with P4; format: cell-based; details: 10 μM compound plus 100 nM P4, 24 h
[12] = tested on: ovarian cancer; details: kaempferol intake, human observational studies; cited from earlier work

SMILES	PRE-luciferase Fold increase (10μM) ([1]; T47D cells) [fold]	IC50 [2] [µM]	CC50 at 24 h ([4]; T47D cells) [µM]	dose-dependent activation of PRE-luciferase ([1]; T47D cells)	compound-induced PRE-luciferase activity in the presence of RU486 [1]	induction of ZBTB16 mRNA [5]	induction of PRL expression [6]	downregulation of PRA and PRB protein expression [8]	further results
COc1ccc(-c2coc3cc(O)cc(O)c3c2=O)cc1 [Biochanin A, biochanin A]	1.0 ± 0.1								IC50 ([2]; read-out: PR Binding IC50, pure compounds, purified PR): > 250 µM; CC50 [3]: > 20 µM
O=c1c(-c2ccc(O)cc2)coc2cc(O)ccc12 [Daidzein, daidzein]	1.0 ± 0.4	> 250	> 20						
O=c1c(-c2ccc(O)cc2)coc2cc(O)cc(O)c12 [Genistein]	2.2 ± 1.1	> 250							CC50 at 24 h [4]: > 20 µM
O=C1C[C@@H](c2ccc(O)cc2)Oc2cc(O)cc(O)c21 [Naringenin, naringenin]	1.9± 0.4	6.9 ± 1.8	> 20	dose-dependently activated	significantly abrogate	did not induce	induced PRL expression	not observed	PRE-luciferase activation versus solvent control ([1]; 20 μM, T47D cells): reached significance; induction of CNR1 expression [7]: did not induce CNR1 expression
CC(=O)O[C@]1(C(C)=O)CC[C@H]2[C@@H]3C[C@H](C)C4=CC(=O)CC[C@]4(C)[C@H]3CC[C@@]21C [MPA, medroxyprogesterone acetate, reference compound]									PRE-luciferase activity compared with P4 ([1]; T47D cells, data not shown): comparable activity; dose-dependent activation of PRE-luciferase [9]: dose-dependently activated; compound-induced PRE-luciferase in the presence of RU486 [9]: significantly inhibited
O=c1cc(-c2ccc(O)cc2)oc2cc(O)cc(O)c12 [Apigenin, apigenin]						did not induce	induced PRL expression		CC50 at 24 h [4]: > 20 µM; development of MPA-induced mammary tumors [10]: prevents the development
CC(=O)[C@H]1CC[C@H]2[C@@H]3CCC4=CC(=O)CC[C@]4(C)[C@H]3CC[C@]12C [Progesterone, reference compound]				dose-dependently activated	significantly abrogate			downregulation of PRB and more noticeably PRA	
O=c1c(O)c(-c2ccc(O)cc2)oc2cc(O)cc(O)c12 [Kaempferol, kaempferol]	5.5 ± 1.8	1.5 ± 0.4	> 20	dose-dependently activated	significantly abrogate	significantly induced	induced PRL expression	not observed	concentration of highest PRE-luciferase activity from dose response curves ([1]; T47D cells): 7.5 µM; concentration above which PRE-luciferase activity started to decrease ([1]; likely due to cell death): > 10 µM; downregulation of P4-induced PRE-luciferase [11]: significantly downregulated; dose-dependent activation of PRE-luciferase [9]: dose-dependently activated; compound-induced PRE-luciferase in the presence of RU486 [9]: significantly inhibited; decrease of ovarian cancer incidence [12]: 40%
COc1ccc(-c2coc3cc(O)ccc3c2=O)cc1 [Formononetin, formononetin]	1.5 ± 0.6	> 250	> 20						
